Here are results for four compounds from patent US12498375B2, “Water-soluble compound for detection of beta-amyloid” (KOREA ATOMIC ENERGY RESEARCH INSTITUTE, priority 2020, dated 2025).

Each structure is given as a SMILES string.

One data set has as its target T1, Ab42 fibrils (Homo sapiens, UniProt P05067).
T1 construct: 10 μM of Ab42 fibrils
As to the kind of experiment: Measurement of maximum excitation and emission wavelengths (SpectraMax M2). The class given is physicochemical. To be noted: 10 μM Ab42 fibrils, 5 μM compound, PBS buffer. How it is done:
The maximum excitation and emission wavelengths λmax of the Compounds 1, 2, 4, and 5 according to the present invention were measured by SpectraMax M2 (molecular devices). 10 μM of Ab42 fibrils and 5 μM of each compound, produced by the aforementioned method, as final concentrations were used in a PBS buffer solution. In general, the excitation λmax is determined by scanning the fixed first emission, and the emission λmax is determined by scanning the excitation spectrum with the fixed λmax. The absorbance of each of the Compound 1, Compound 2, Compound 4, and Compound 5 synthesized above was measured, and the results thereof are shown in FIG. 2.

Data set [1] concerns the target T2, beta-amyloid (Aβ42 aggregate) (Homo sapiens, UniProt P05067).
T2 construct: 10 μM of Ab42 fibrils
In words: Evaluation of activity (fluorescence) before and after binding to beta-amyloid. The conditions noted are these: for Change in fluorescence intensity after binding to beta-amyloid: before vs after binding to Aβ42 aggregate; for Faβ/F0 (fluorescence reactivity to the Aβ peptide): before vs after binding to Aβ peptide. The procedure:
Regarding each of the Compound 1, Compound 2, Compound 4, and Compound 5 synthesized above, the activity before and after binding to beta-amyloid was evaluated, and the results thereof are shown in FIG. 3. […] Moreover, the absorption wavelengths of each of the Compound 1, Compound 2, Compound 4, and Compound 5 before and after binding to beta-amyloid are shown in Table 2 below. […] In particular, regarding the fluorescence reactivity to the Aβ peptide, the Faβ/F0 values of the Compounds 1, 2, 4, and 5 were 4.3, 11.6, 3.1, and 9.6, respectively, indicating high fluorescence properties (see Table 2 below). Furthermore, from FIG. 3, it was confirmed that there was a clear difference in the emission wavelength before and after the compound according to the present invention bound to the amyloid plaque.

Data set [2] is described as follows: Retina-targeting experiment in laboratory mouse (IVIS spectrum CT imaging). The class given is in vivo. To be noted: 8 mg/kg tail vein, 3-month-old nude mouse. The procedure: A water-soluble Compound 1 (8 mg/kg) was injected into the tail vein of a 3-month-old nude mouse, and imaging was carried out with an IVIS spectrum CT system device, and the results thereof are shown in FIG. 4.

T1 sequence (P05067 672-713 limits assumed): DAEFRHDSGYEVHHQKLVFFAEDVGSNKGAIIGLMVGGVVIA
T2 sequence (P05067 672-713 limits assumed): as above

On Ab42 fibrils, `CC1(C)C(/C=C/c2ccc(N3CCNCC3)cc2)=[N+](CCCCS(=O)(=O)[O-])c2ccc3ccccc3c21` [Compound 4, (E)-4-(1,1-dimethyl-2-(4-(piperazin-1-yl)styryl)-1H-benzo[e]indol-3-ium-3-yl)butane-1-sulfonate] yielded a λem of 620 nm and a λex of 570 nm. In data set [1], the “Change in fluorescence intensity after binding to beta-amyloid” value (“Change in fluorescence intensity” for short) is given as 3.1 fold and the “Faβ/F0 (fluorescence reactivity to the Aβ peptide)” value (“Faβ/F0” for short) came to 3.1.
For `CN(C)c1ccc(-c2ccc(/C=C/C3=[N+](CCCCS(=O)(=O)[O-])c4ccc5ccccc5c4C3(C)C)s2)cc1` [Compound 2, (E)-4-(2-(2-(5-(4-(dimethylamino)phenyl)thiophen-2-yl)vinyl)-1,1-dimethyl-1H-benzo[e]indol-3-ium-3-yl)butane-1-sulfonate], in that order: 765 nm, 805 nm, 11.6 fold and 11.6.
With `CN(C)c1ccc(/C=C/C2=[N+](CCCCS(=O)(=O)[O-])c3ccc4ccccc4c3C2(C)C)cc1` [Compound 1], on Ab42 fibrils, the λem turned out to be 620 nm and the λex is 560 nm. In addition, in data set [1], the “Change in fluorescence intensity” value is recorded as 4.3 fold and the “Faβ/F0” value is 4.3. The “fluorescence signal in the eye of mouse” value in data set [2] (1 minute after intravenous injection) is listed as “strong fluorescence signal”. Besides, the “fluorescence signal in the eye of mouse” value in data set [2] (10 minutes after intravenous injection) is “weak fluorescence signal”.
At Ab42 fibrils, `CNc1ccc(-c2ccc(/C=C/C3=[N+](CCCCS(=O)(=O)[O-])c4ccc5ccccc5c4C3(C)C)s2)cc1` [Compound 5, (E)-4-(1,1-dimethyl-2-(2-(5-(4-(methylamino)phenyl)thiophen-2-yl)vinyl)-1H-benzo[e]indol-3-ium-3-yl)butane-1-sulfonate] had a λem of 760 nm and a λex of 575 nm. For the same compound, in data set [1], the “Change in fluorescence intensity” value came out at 9.6 fold and the “Faβ/F0” value came to 9.6.
